This note sets out measurements from PubChem BioAssay AID270 (DTP/NCI, 2004).

Each structure is given as a SMILES string. “And” between values parts separate entries of the source, which are not always exact repeats. Identical values can stand only once. Records with an inconclusive call do not appear.

For this test, the system named is BDF1 mice, s.c. Lewis lung carcinoma, T/C %. In words: NCI In Vivo Anticancer Drug Screen. Data for tumor model Lewis Lung Carcinoma (subcutaneous) in B6D2F1 (BDF1) mice. Summed up: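 The value reflects a ratio in which the treated cohort's survival time or tumour size is compared against mice receiving only vehicle.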
[1] abbreviates: endpoint: mean tumor weight, dose: 12.5 mg/kg/injection, schedule: Q01DX011 (ip), vehicle: saline, higher = larger tumour.
Where [2] appears, read: endpoint: mean tumor weight, dose: 25.0 mg/kg/injection, schedule: Q01DX011 (ip), vehicle: saline, higher = larger tumour.
The mark [3] stands for this setting: endpoint: mean tumor weight, dose: 50.0 mg/kg/injection, schedule: Q01DX011 (ip), vehicle: saline, higher = larger tumour.
Where [4] appears, read: endpoint: median survival time, dose: 25.0 mg/kg/injection, schedule: Q01DX009 (ip), vehicle: Klucel (hydroxypropylcellulose) (HPC), higher = longer survival.
The mark [5] stands for this setting: endpoint: median survival time, dose: 50.0 mg/kg/injection, schedule: Q01DX009 (ip), vehicle: Klucel (hydroxypropylcellulose) (HPC), higher = longer survival.

For `O=P1(NCCCl)OCCCN1CCCl` (centres undefined), the T/C is 114 % of control under setting [1]; 14 % of control under setting [2]; 2 % of control under setting [3]; 100 % of control under setting [4]; 106 % of control (endpoint: median survival time, dose: 50.0 mg/kg/injection, schedule: Q01DX001 (ip), vehicle: saline, higher = longer survival); 150 % of control under setting [5]. The T/C reads like this: (endpoint: median survival time, dose: 100.0 mg/kg/injection, schedule: Q01DX001 (ip), vehicle: saline, higher = longer survival) 124 % of control; (endpoint: median survival time, dose: 200.0 mg/kg/injection, schedule: Q01DX001 (ip), vehicle: saline, higher = longer survival) 200 % of control and 243 % of control; (endpoint: median survival time, dose: 400.0 mg/kg/injection, schedule: Q01DX001 (ip), vehicle: saline, higher = longer survival) 200 % of control and 243 % of control; (endpoint: median survival time, dose: 800.0 mg/kg/injection, schedule: Q01DX001 (ip), vehicle: saline, higher = longer survival) 243 % of control.
Turning to `COc1cc2c[n+](C)c3c4cc5c(cc4ccc3c2cc1OC)OCO5` (tested in a mixture with another compound), the T/C is 92 % of control (endpoint: median survival time, dose: 5.0 mg/kg/injection, schedule: Q01DX009 (ip), vehicle: saline, higher = longer survival); 96 % of control (endpoint: median survival time, dose: 10.0 mg/kg/injection, schedule: Q01DX009 (ip), vehicle: saline, higher = longer survival); 86 % of control (endpoint: median survival time, dose: 20.0 mg/kg/injection, schedule: Q01DX009 (ip), vehicle: saline, higher = longer survival).
Consider `CNNCc1ccc(C(=O)NC(C)C)cc1`, for which the T/C was 100 % of control (endpoint: median survival time, dose: 25.0 mg/kg/injection, schedule: Q08HX024 (ip), vehicle: saline, higher = longer survival) and 112 % of control (endpoint: median survival time, dose: 50.0 mg/kg/injection, schedule: Q08HX024 (ip), vehicle: saline, higher = longer survival).
Consider `Nc1nc(SCc2ccccc2)c2ncn(C3CCCC3)c2n1`, for which the T/C was 115 % of control (endpoint: mean tumor weight, dose: 75.0 mg/kg/injection, schedule: Q01DX011 (ip), vehicle: other, higher = larger tumour); 81 % of control (endpoint: mean tumor weight, dose: 150.0 mg/kg/injection, schedule: Q01DX011 (ip), vehicle: other, higher = larger tumour); 54 % of control (endpoint: mean tumor weight, dose: 300.0 mg/kg/injection, schedule: Q01DX011 (ip), vehicle: other, higher = larger tumour); 47 % of control and 65 % of control (endpoint: mean tumor weight, dose: 600.0 mg/kg/injection, schedule: Q01DX011 (ip), vehicle: other, higher = larger tumour); 52 % of control (endpoint: mean tumor weight, dose: 750.0 mg/kg/injection, schedule: Q01DX011 (ip), vehicle: other, higher = larger tumour).
Turning to `CS(=O)(=O)OCC(=O)NCCNC(=O)COS(C)(=O)=O`, the T/C is, setting by setting: under setting [2], 98 % of control; under setting [3], 90 % of control; (endpoint: mean tumor weight, dose: 100.0 mg/kg/injection, schedule: Q01DX011 (ip), vehicle: saline, higher = larger tumour) 94 % of control; (endpoint: mean tumor weight, dose: 200.0 mg/kg/injection, schedule: Q01DX011 (ip), vehicle: saline, higher = larger tumour) 82 % of control.
On to `CC(C)(c1ccccc1)c1ccc(O)cc1`, for which the T/C is, setting by setting: (endpoint: mean tumor weight, dose: 45.0 mg/kg/injection, schedule: Q01DX011 (ip), vehicle: carboxymethylcellulose (CMC), higher = larger tumour) 82 % of control; (endpoint: mean tumor weight, dose: 65.0 mg/kg/injection, schedule: Q01DX011 (ip), vehicle: carboxymethylcellulose (CMC), higher = larger tumour) 60 % of control.
For the compound `C=C[C@]1(C)C=C2CC[C@@H]3[C@](C)(CCC[C@@]3(C)C(=O)O)[C@H]2CC1`, the T/C is, setting by setting: (endpoint: mean tumor weight, dose: 7.8 mg/kg/injection, schedule: Q01DX011 (ip), vehicle: saline, higher = larger tumour) 73 % of control; (endpoint: mean tumor weight, dose: 15.6 mg/kg/injection, schedule: Q01DX011 (ip), vehicle: saline, higher = larger tumour) 55 % of control; (endpoint: mean tumor weight, dose: 31.3 mg/kg/injection, schedule: Q01DX011 (ip), vehicle: saline, higher = larger tumour) 43 % of control; (endpoint: mean tumor weight, dose: 62.5 mg/kg/injection, schedule: Q01DX011 (ip), vehicle: saline, higher = larger tumour) 98 % of control and 102 % of control; (endpoint: mean tumor weight, dose: 125.0 mg/kg/injection, schedule: Q01DX011 (ip), vehicle: saline, higher = larger tumour) 102 % of control; (endpoint: mean tumor weight, dose: 250.0 mg/kg/injection, schedule: Q01DX011 (ip), vehicle: saline, higher = larger tumour) 82 % of control.
As for `COc1ccc2c(Cc3ccccc3)cncc2c1O`, the T/C is 90 % of control (endpoint: median survival time, dose: 12.5 mg/kg/injection, schedule: Q01DX009 (ip), vehicle: Klucel (hydroxypropylcellulose) (HPC), higher = longer survival); 101 % of control under setting [4]; 91 % of control under setting [5]; 101 % of control (endpoint: median survival time, dose: 100.0 mg/kg/injection, schedule: Q01DX009 (ip), vehicle: Klucel (hydroxypropylcellulose) (HPC), higher = longer survival).
`CC(/C=N/N=C(N)N)=N/N=C(N)N`: the T/C is, setting by setting: under setting [1], 96 % of control; under setting [2], 69 % of control; under setting [3], 94 % of control.
With `Cc1cc(C)c(NC(=O)N(CCCl)N=O)cc1C`, the T/C by setting is: (endpoint: mean tumor weight, dose: 25.0 mg/kg/injection, schedule: Q01DX001 (ip), vehicle: carboxymethylcellulose (CMC), higher = larger tumour) 80 % of control; (endpoint: mean tumor weight, dose: 50.0 mg/kg/injection, schedule: Q01DX001 (ip), vehicle: carboxymethylcellulose (CMC), higher = larger tumour) 82 % of control; (endpoint: median survival time, dose: 12.5 mg/kg/injection, schedule: Q01DX009 (ip), vehicle: other, higher = longer survival) 98 % of control; (endpoint: median survival time, dose: 25.0 mg/kg/injection, schedule: Q01DX009 (ip), vehicle: other, higher = longer survival) 98 % of control; (endpoint: median survival time, dose: 50.0 mg/kg/injection, schedule: Q01DX009 (ip), vehicle: other, higher = longer survival) 87 % of control.
As to `Oc1ccc(O)c(/C=N/NC(=S)NC2CC3CC2C2C=CCC32)c1` (centres undefined), the T/C runs as follows: (endpoint: median survival time, dose: 25.0 mg/kg/injection, schedule: Q01DX009 (ip), vehicle: olive oil, sesame oil, peanut oil, higher = longer survival) 87 % of control; (endpoint: median survival time, dose: 50.0 mg/kg/injection, schedule: Q01DX009 (ip), vehicle: olive oil, sesame oil, peanut oil, higher = longer survival) 86 % of control.
Take `C[C@H]1CC[C@@]2(NC1)O[C@H]1C[C@H]3[C@@H]4CC[C@H]5C[C@@H](O)CC[C@]5(C)[C@H]4CC[C@]3(C)[C@H]1[C@@H]2C`: the T/C (endpoint: mean tumor weight, dose: 3.13 mg/kg/injection, schedule: Q01DX011 (sc), vehicle: steriod suspending solution, higher = larger tumour) was 83 % of control; the T/C (endpoint: mean tumor weight, dose: 6.25 mg/kg/injection, schedule: Q01DX011 (sc), vehicle: steriod suspending solution, higher = larger tumour) is 108 % of control; the T/C (endpoint: mean tumor weight, dose: 12.5 mg/kg/injection, schedule: Q01DX011 (sc), vehicle: steriod suspending solution, higher = larger tumour) was 96 % of control; the T/C (endpoint: mean tumor weight, dose: 25.0 mg/kg/injection, schedule: Q01DX011 (sc), vehicle: steriod suspending solution, higher = larger tumour) is 96 % of control and 105 % of control; the T/C (endpoint: mean tumor weight, dose: 50.0 mg/kg/injection, schedule: Q01DX011 (sc), vehicle: steriod suspending solution, higher = larger tumour) is 119 % of control; the T/C (endpoint: mean tumor weight, dose: 100.0 mg/kg/injection, schedule: Q01DX011 (sc), vehicle: steriod suspending solution, higher = larger tumour) was 117 % of control. For the same compound, the T/C is 110 % of control (endpoint: mean tumor weight, dose: 200.0 mg/kg/injection, schedule: Q01DX011 (sc), vehicle: steriod suspending solution, higher = larger tumour) and 93 % of control (endpoint: mean tumor weight, dose: 400.0 mg/kg/injection, schedule: Q01DX011 (sc), vehicle: steriod suspending solution, higher = larger tumour).
As to `[I][Hg][CH2]C1COCC([CH2][Hg][I])O1.[I][Hg][CH2]C1COCC([CH2][Hg][I])O1` (centres undefined), the T/C is 80 % of control (endpoint: mean tumor weight, dose: 19.0 mg/kg/injection, schedule: Q01DX011 (ip), vehicle: other, higher = larger tumour); 57 % of control (endpoint: mean tumor weight, dose: 29.0 mg/kg/injection, schedule: Q01DX011 (ip), vehicle: other, higher = larger tumour); 36 % of control (endpoint: mean tumor weight, dose: 66.0 mg/kg/injection, schedule: Q01DX011 (ip), vehicle: other, higher = larger tumour).
With `CCCCCCCC(=O)O[C@H]1[C@H]2[C@@H](CC1(C)C)C(=O)[C@]13O[C@H]1C(=O)[C@]1(CO1)[C@]23C`, the T/C (endpoint: median survival time, dose: 0.31 mg/kg/injection, schedule: Q01DX009 (ip), vehicle: Klucel (hydroxypropylcellulose) (HPC), higher = longer survival) was 89 % of control; the T/C (endpoint: median survival time, dose: 0.63 mg/kg/injection, schedule: Q01DX009 (ip), vehicle: Klucel (hydroxypropylcellulose) (HPC), higher = longer survival) is 90 % of control; the T/C (endpoint: median survival time, dose: 1.25 mg/kg/injection, schedule: Q01DX009 (ip), vehicle: Klucel (hydroxypropylcellulose) (HPC), higher = longer survival) was 89 % of control; the T/C (endpoint: median survival time, dose: 2.5 mg/kg/injection, schedule: Q01DX009 (ip), vehicle: Klucel (hydroxypropylcellulose) (HPC), higher = longer survival) is 89 % of control.
For `CC1(C)OCC(CO)(Nc2nc(N3CC3)nc(N3CC3)n2)CO1`, the T/C reads like this: (endpoint: median survival time, dose: 0.62 mg/kg/injection, schedule: Q01DX009 (ip), vehicle: saline, higher = longer survival) 100 % of control and 119 % of control; (endpoint: median survival time, dose: 1.25 mg/kg/injection, schedule: Q01DX009 (ip), vehicle: saline, higher = longer survival) 115 % of control and 116 % of control; (endpoint: median survival time, dose: 2.5 mg/kg/injection, schedule: Q01DX009 (ip), vehicle: saline, higher = longer survival) 112 % of control.
`CN1CCCC1`: the T/C is 52 % of control (endpoint: mean tumor weight, dose: 44.0 mg/kg/injection, schedule: Q01DX011 (ip), vehicle: carboxymethylcellulose (CMC), higher = larger tumour); 58 % of control (endpoint: mean tumor weight, dose: 66.0 mg/kg/injection, schedule: Q01DX011 (ip), vehicle: carboxymethylcellulose (CMC), higher = larger tumour); 69 % of control (endpoint: mean tumor weight, dose: 100.0 mg/kg/injection, schedule: Q01DX011 (ip), vehicle: carboxymethylcellulose (CMC), higher = larger tumour); 109 % of control (endpoint: mean tumor weight, dose: 150.0 mg/kg/injection, schedule: Q01DX011 (ip), vehicle: carboxymethylcellulose (CMC), higher = larger tumour).
Take `CCOC(=O)C(Br)CC` (centres undefined): for the setting “endpoint: mean tumor weight, dose: 148.0 mg/kg/injection, schedule: Q01DX011 (ip), vehicle: other, higher = larger tumour”, the T/C is 77 % of control.
